Values belong to the compound of their own block, whether it stands above or below them. Where a SMILES comes first, the peptide text is derived from it. Where no end group is shown, it is not given here.
Legend:
PAI-1 [1] = molecular target: T1, PAI-1 (Homo sapiens, UniProt P05121); test: Competition ELISA: binding of vitronectin onto immobilized activated PAI-1; design: purchased American Diagnostica, New York; details: for level of inhibition achieved: FIG. 7, vitronectin 0.5 μg/ml, increasing peptide concentrations
T1 sequence (P05121 24-402): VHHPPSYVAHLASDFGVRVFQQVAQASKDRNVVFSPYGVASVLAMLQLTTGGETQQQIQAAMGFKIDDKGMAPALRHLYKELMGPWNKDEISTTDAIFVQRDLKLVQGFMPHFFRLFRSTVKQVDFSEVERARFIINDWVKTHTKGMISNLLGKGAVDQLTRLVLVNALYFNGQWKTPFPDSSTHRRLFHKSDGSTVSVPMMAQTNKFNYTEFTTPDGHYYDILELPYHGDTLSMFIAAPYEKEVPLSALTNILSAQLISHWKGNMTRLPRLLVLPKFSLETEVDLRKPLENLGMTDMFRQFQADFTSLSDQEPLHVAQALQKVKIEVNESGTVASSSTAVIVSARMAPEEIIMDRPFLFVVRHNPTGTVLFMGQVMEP
Procedure: Protein concentration was determined by the method described by Bradford, 1976. The binding of vitronectin to immobilized PAI-1 was conducted as described by Salonen et al., 1989. The activation of PAI-1 by sodium dodecylsulfate was carried out as described by Katagiri et al., 1988. Amino acid sequencing was performed with an Applied Biosystem 475A sequencer.
Each of the synthetic peptides shown in Scheme I and each of the peptides containing amino acids with a D configuration (BP7, BP8 and BP14) was tested by a competition ELISA assay for its ability to inhibit the binding of vitronectin to immobilized activated PAI-1. The first screening (FIGS. 3A-3D) was carried out with an identical molar concentration (25 μM) of the peptides. In view of a possible variability in such tests (mainly due to some variability in the activated PAI-1 coating of the plates), a control of vitronectin alone was run alongside in each plate for reference.
The various synthetic peptides (all 50 μM) were dissolved in 50 μl of a buffer composed of PBS, Tween 20 (0.01%), polyethylene-glycol (average M.W. 8 kDa) (4% w/v). Each of the samples was added to a microtiter well coated with SDS-activated PAI, prepared as described by Katagiri et al., 1988. After an incubation of 30 min at 22° C., aliquots (50 μl) of a vitronectin solution (at various concentrations) in the same buffer were added to each well. This was followed by an incubation for 2 hrs at 37° C. The amount of bound vitronectin was determined with specific rabbit anti-human Vn antibodies (1:1000 dilution), followed by a β-galactosidase-linked protein A and using o-nitrophenyl-β-D-galactopyranoside (ONPG) as a substrate. The enzymatic reaction was allowed to proceed and the absorbance at 405+490 nm was measured. Each point in the graphs represents the mean of triplicate determinations. […]

PAI-1 [2] = molecular target: T1, PAI-1; test: Release of PAI-1 activity by endothelial cells in culture; type: cell-based; details: human endothelial cell system, 6 hours, control = 100%
Procedure: PAI-1 is determined in the supernatant of HUVEC cells according to the method of Chmielewska et al., 1983. Briefly, cells are cultured in semiconfluent way with or without ECM. The culture medium is changed for Hank's balanced salt solution with 2% FCS and the tested substances with or without added plasmin (5 μg/ml) are diluted in this buffer and incubated with the cells for 6 hours. Samples from the cell supernatant are assayed for the PAI-1 activity.
For the PAI-1 assay, the cell supernatant is incubated with a fixed amount of tPA (40 U/ml) and the residual activity of the tPA is determined by a substrate composed of plasminogen (0.1μg/ml), chromogenic substrate (S-2251) and stimulator (Kabi, Sweden). After incubation with the substrate, O.D. is measured at 405 run and the amount of the inhibitor is calculated from calibration curve. PAI-1 antigen may also be determined with commercial kits.

level of inhibition achieved (PAI-1 [1]): approximately 65%
PAI-1 activity increase over control at 10 µM (PAI-1 [2]; 1 × 10^-5 M, read-out: PAI activity % above control (mean)): 29%
PAI-1 activity increase over control at 1 µM (PAI-1 [2]; 1 × 10^-6 M, read-out: PAI activity % above control (mean)): 47%
PAI-1 activity increase over control at 0.1 µM (PAI-1 [2]; 1 × 10^-7 M, read-out: PAI activity % above control (mean)): 0%
PAI-1 activity increase over control at 0.33 µM (PAI-1 [2]; 3.3 × 10^-7 M, read-out: PAI activity % above control (mean)): 17%
Compound: C[C@H](NC(=O)[C@H](CCCNC(=N)N)NC(=O)[C@H](CO)NC(=O)[C@@H]1CCCN1C(=O)[C@H](CCCNC(=N)N)NC(=O)[C@H](CCCNC(=N)N)NC(=O)[C@H](CO)NC(=O)[C@H](CC(N)=O)NC(=O)[C@H](CCC(N)=O)NC(=O)[C@H](CC(N)=O)NC(=O)[C@H](CCCNC(=N)N)NC(=O)CNC(=O)[C@H](CCCNC(=N)N)NC(=O)[C@H](CO)NC(=O)[C@H](Cc1c[nH]cn1)NC(=O)CNC(=O)[C@H](CCCNC(=N)N)NC(=O)[C@H](CCC(N)=O)NC(=O)[C@@H](N)CO)C(=O)O [BP4] (H-SQRGHSRGRNQNSRRPSRA-OH)

level of inhibition achieved (PAI-1 [1]): approximately 65%
Compound: N=C(N)NCCC[C@H](NC(=O)CNC(=O)[C@H](CCCNC(=N)N)NC(=O)[C@H](CO)NC(=O)[C@H](Cc1c[nH]cn1)NC(=O)CNC(=O)[C@H](CCCNC(=N)N)NC(=O)[C@H](CCC(N)=O)NC(=O)[C@H](CO)NC(=O)[C@H](CCCNC(=N)N)NC(=O)[C@H](Cc1ccc(O)cc1)NC(=O)CNC(=O)[C@@H](N)CCCCN)C(=O)O [BP5] (H-KGYRSQRGHSRGR-OH)

level of inhibition achieved (PAI-1 [1]): approximately 65%
PAI-1 activity decrease below control at 10 µM (PAI-1 [2]; 1 × 10^-5 M): 19.5%
PAI-1 activity decrease below control at 1 µM (PAI-1 [2]; 1 × 10^-6 M): 36.5%
PAI-1 activity decrease below control at 0.1 µM (PAI-1 [2]; 1 × 10^-7 M): 19%
PAI-1 activity decrease below control at 0.01 µM (PAI-1 [2]; 1 × 10^-8 M): 19%
PAI-1 activity decrease below control at 0.33 µM (PAI-1 [2]; 3.3 × 10^-7 M): 39%
Compound: N=C(N)NCCC[C@H](NC(=O)[C@H](Cc1ccc(O)cc1)NC(=O)CNC(=O)[C@H](CCCCN)NC(=O)[C@H](CCCNC(=N)N)NC(=O)[C@H](CC(N)=O)NC(=O)[C@H](CCCNC(=N)N)NC(=O)[C@H](Cc1c[nH]cn1)NC(=O)[C@H](CCCNC(=N)N)NC(=O)[C@H](Cc1ccccc1)NC(=O)[C@H](CCCNC(=N)N)NC(=O)[C@H](CCC(N)=O)NC(=O)[C@H](CCCCN)NC(=O)[C@@H](N)CCCCN)C(=O)N[C@@H](CO)C(=O)N[C@@H](CCC(N)=O)C(=O)O [BP6] (H-KKQRFRHRNRKGYRSQ-OH)

binding to immobilized PAI-1 (effect on vitronectin binding) (PAI-1 [1]; D-configuration peptides, 1-10 μM, FIG. 8): bind to immobilized PAI-1
Compound: BP7: same sequence as BP6 (K348-Q363) but the underlined residues in Scheme II have D configuration (KKQRFRHRNRKGYRSQ; also: some residues are D-form, positions not given here (underlining not shown))
